Values of other authors as cited in patent US11278622B2, “Ceftolozane antibiotic compositions” (Merck Sharp & Dohme Corp., priority 2013, dated 2022).

Test system: P. aeruginosa

For `Cn1c(N)c(NC(=O)NCCN)c[n+]1CC1=C(C(=O)O)N2C(=O)[C@@H](NC(=O)/C(=N\OC(C)(C)C(=O)O)c3nsc(N)n3)[C@H]2SC1` [ceftolozane, (6R,7R)-3-[(5-amino-4-{[(2-aminoethyl)carbamoyl]amino}-1-methyl-1H-pyrazol-2-ium-2-yl)methyl]-7-({(2Z)-2-(5-amino-1,2,4-thiadiazol-3-yl)-2-[(1-carboxy-1-methylethoxy)imino]acetyl}amino)-8-oxo-5-thia-1-azabicyclo[4.2.0]oct-2-ene-2-carboxylate], the MIC90 is listed as ≤ 2 µg/mL.
